Counter-ions that a name gives are not always drawn.
What was measured:
Solubility in solvents = type: physicochemical
Procedure: Hydrogenated egg phosphatidylcholine (HEPC), cholesterol (CHO) and fatty acid compound (PA, N-TTA and TTA) were weighed out separately and dissolved in chloroform. N-TTA is not soluble in chloroform alone and was therefore dissolved in a 1:1 mixture of methanol and chloroform. The dissolved lipids were mixed in a molar ratio of 1.81 HEPC:1CHO and 0.5-2 PA/N-TTA/TTA in a 100 or 250 mL Duran round bottom flasks. Next, a thin lipid film was made by slowly evaporating the solvents by using Laborota 4000 rotary evaporator at light vacuum, 200 mbar, and 60 rpm for 1.5-2.5 hours depending on the volume of solvents. To ensure a solvent-free lipid film, full vacuum (0 mbar) was applied the last 30 minutes.
(§1) As a preliminary test, NB4 was exposed to TTA, 2-tr-TTA and PA dissolved in DMSO in concentrations between 37.5 to 300 μM for 48 hours. […] It was decided to not try higher concentrations of TTA PA and 2-tr-TTA dissolved in DMSO because of DMSO's cellular toxicity. In this project, one aim was to compare TTA with N-TTA and 2-tr-N-TTA. […] Compared to DMSO-control there was no significant decrease in cell viability after treatment with B SFAs dissolved in DMSO (p>0.05).

NB4 cell line = assay: WST-1 viability assay, fatty acids dissolved in DMSO; type: cell-based; conditions: 48 hours
Procedure: NB4 cells at a concentration of 0.1×10^5 cells/mL were incubated with 37.5, 75, 150 and 300 μM of TTA, 2-tr-TTA and PA dissolved in DMSO for 48 hours. Cell viability was assessed with WST-1 assay after 4 hours of incubation, and the absorption was related to the DMSO-control. Cell viability is presented as percentage of DMSO-control (100%). The assay was performed with triplicates for each concentration of the individual SBFA and the result is presented as mean of the triplicates±SD, n=1.
as §1

solubility in DMSO (Solubility in solvents)	solubility in chloroform (Solubility in solvents; chloroform alone, dissolved in 1:1 methanol and chloroform)	Compound	cell viability (percentage of DMSO-control), WST-1 (NB4 cell line; NB4, 37.5-300 μM dissolved in DMSO, n=1, p>0.05)	metabolic activity (WST-1), trend as presented in FIG. 1 (NB4 cell line; NB4, 37.5-300 μM in DMSO, stimulating effect especially at 75 μM)
seemingly insoluble	not soluble	CCCCCCCCCCCCCCNCC(=O)O [N-TTA, N-tetradecylglycine]		
seemingly insoluble		CC#CCCCCCCCCCCCNCC(=O)O [2-trN-TTA, Tetradec-12-yn-1-ylglycine hydrochloride]		
		CC#CCCCCCCCCCCCSCC(=O)O [2-tr-TTA, 2-(Tetradec-12-yn-1-ylthio)acetic acid]	lack of significant antiproliferative effect	stimulating effect
